#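 Following 48 hours of exposure in 96-well plates, responses at five concentrations were used to interpolate endpoints linearly. At the GI50, growth is halved. TGI is the concentration that stops growth completely.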
# Legend:
# Test in all cases: inhibition of tumour cell growth, NCI panel, 48 h
# [1] = system: SK-OV-3 ovarian
# [2] = system: SR leukemia
# [3] = system: MDA-MB-231 breast
# [4] = system: UO-31 renal
# [5] = system: HCT-116 colon
# [6] = system: T-47D breast
# [7] = system: SK-MEL-28 melanoma
# [8] = system: MCF7 breast
# [9] = system: SNB-19 CNS
# [10] = system: HCC-2998 colon
# [11] = system: HS 578T breast
# [12] = system: K-562 leukemia
# [13] = system: CAKI-1 renal
# [14] = system: SK-MEL-5 melanoma
# [15] = system: EKVX NSCLC
# [16] = system: MDA-MB-435
# [17] = system: IGROV1 ovarian
# [18] = system: OVCAR-5 ovarian
# [19] = system: DU-145 prostate
# [20] = system: HL-60(TB) leukemia
# [21] = system: M14 melanoma
# [22] = system: KM12 colon
# [23] = system: A498 renal
# [24] = system: MOLT-4 leukemia
# [25] = system: HT29 colon
# [26] = system: RPMI-8226 leukemia
# [27] = system: SNB-75 CNS
# [28] = system: PC-3 prostate
# [29] = system: OVCAR-3 ovarian
# [30] = system: 786-0 renal
# [31] = system: UACC-257 melanoma
# [32] = system: HOP-92 NSCLC
# [33] = system: HCT-15 colon
# [34] = system: TK-10 renal
# [35] = system: NCI-H522 lung
# [36] = system: SN12C renal
# [37] = system: BT-549 breast
# [38] = system: SF-295 CNS
# [39] = system: LOX IMVI melanoma
# [40] = system: A549 NSCLC
# [41] = system: SK-MEL-2 melanoma
# [42] = system: CCRF-CEM leukemia
# [43] = system: OVCAR-8 ovarian
# [44] = system: NCI/ADR-RES ovarian
# [45] = system: ACHN renal
# [46] = system: COLO 205 colon
# [47] = system: NCI-H460 lung
# [48] = system: U251 CNS
# [49] = system: UACC-62 melanoma
# [50] = system: SF-539 CNS
# [51] = system: NCI-H23 lung
# [52] = system: HOP-62 NSCLC
# [53] = system: SW-620 colon
# [54] = system: OVCAR-4 ovarian
# [55] = system: MALME-3M melanoma
# [56] = system: SF-268 CNS
# [57] = system: NCI-H226 lung
# [58] = system: RXF 393 renal
smiles,measurement,setting,value
CN1CCN(c2ccc(Nc3nc(NCCCNS(=O)(=O)c4ccccc4)c4sccc4n3)cc2)CC1,GI50,[1],29.6 µM
same,TGI,[1],81.3 µM
same,GI50,[2],2.83 µM
same,TGI,[2],> 100 µM
same,GI50,[3],12.8 µM
same,TGI,[3],30 µM
same,GI50,[4],12.5 µM
same,TGI,[4],25.5 µM
same,GI50,[5],7.46 µM
same,TGI,[5],> 100 µM
same,GI50,[6],18.3 µM
same,TGI,[6],46.5 µM
same,GI50,[7],13.5 µM
same,TGI,[7],26.3 µM
same,GI50,[8],9.12 µM
same,TGI,[8],21.5 µM
same,GI50,[9],25.6 µM
same,TGI,[9],67.7 µM
same,GI50,[10],17.5 µM
same,TGI,[10],35.6 µM
same,GI50,[11],13.5 µM
same,TGI,[11],38.5 µM
same,GI50,[12],3.18 µM
same,TGI,[12],> 100 µM
same,GI50,[13],16.4 µM
same,TGI,[13],30 µM
same,GI50,[14],16.6 µM
same,TGI,[14],30.6 µM
same,GI50,[15],23.5 µM
same,TGI,[15],64 µM
same,GI50,[16],14.2 µM
same,TGI,[16],27.2 µM
same,GI50,[17],13.3 µM
same,TGI,[17],27.3 µM
same,GI50,[18],16.6 µM
same,TGI,[18],44.4 µM
same,GI50,[19],15.4 µM
same,TGI,[19],28.7 µM
same,GI50,[20],14.9 µM
same,TGI,[20],53.6 µM
same,GI50,[21],3.9 µM
same,TGI,[21],14.3 µM
same,GI50,[22],20.4 µM
same,TGI,[22],65.7 µM
same,GI50,[23],21.9 µM
same,TGI,[23],41.3 µM
same,GI50,[24],5.46 µM
same,TGI,[24],46.6 µM
same,GI50,[25],5.79 µM
same,TGI,[25],33.2 µM
same,GI50,[26],7.3 µM
same,TGI,[26],55.4 µM
same,GI50,[27],10.3 µM
same,TGI,[27],22 µM
same,GI50,[28],19.9 µM
same,TGI,[28],77.4 µM
same,GI50,[29],21.1 µM
same,TGI,[29],55.6 µM
same,GI50,[30],17.8 µM
same,TGI,[30],43.2 µM
same,GI50,[31],16.2 µM
same,TGI,[31],32.8 µM
same,GI50,[32],12.3 µM
same,TGI,[32],58.6 µM
same,GI50,[33],3.93 µM
same,TGI,[33],18.8 µM
same,GI50,[34],23.7 µM
same,TGI,[34],48.6 µM
same,GI50,[35],14.6 µM
same,TGI,[35],30.3 µM
same,GI50,[36],14.8 µM
same,TGI,[36],31.1 µM
same,GI50,[37],17.1 µM
same,TGI,[37],37.4 µM
same,GI50,[38],16 µM
same,TGI,[38],30.2 µM
same,GI50,[39],5.9 µM
same,TGI,[39],20.2 µM
same,GI50,[40],19.3 µM
same,TGI,[40],48.8 µM
same,GI50,[41],17.5 µM
same,TGI,[41],32.3 µM
same,GI50,[42],30.2 µM
same,TGI,[42],> 100 µM
same,GI50,[43],15.5 µM
same,TGI,[43],48.5 µM
same,GI50,[44],21.2 µM
same,TGI,[44],54.8 µM
same,GI50,[45],15.2 µM
same,TGI,[45],28.5 µM
same,GI50,[46],15.5 µM
same,TGI,[46],31.4 µM
same,GI50,[47],16.4 µM
same,TGI,[47],32.9 µM
same,GI50,[48],7.64 µM
same,TGI,[48],52.4 µM
same,GI50,[49],12.9 µM
same,TGI,[49],25.7 µM
same,GI50,[50],11.8 µM
same,TGI,[50],24 µM
same,GI50,[51],15.8 µM
same,TGI,[51],31.6 µM
same,GI50,[52],17 µM
same,TGI,[52],33.2 µM
same,GI50,[53],12.4 µM
same,TGI,[53],27.6 µM
same,GI50,[54],13.4 µM
same,TGI,[54],48.6 µM
same,GI50,[55],13.3 µM
same,TGI,[55],26.2 µM
same,GI50,[56],15.3 µM
same,TGI,[56],63.1 µM
same,GI50,[57],13.5 µM
same,TGI,[57],26.8 µM
CCCC(=O)NC(c1ccc2c(c1)OC(F)(F)O2)c1cc(C)c2cccnc2c1O (stereo not drawn),GI50,[1],0.51 µM
same,TGI,[1],> 67.5 µM
same,GI50,[2],0.436 µM
same,TGI,[2],> 100 µM
same,GI50,[3],0.565 µM
same,TGI,[3],> 100 µM
same,GI50,[58],3.17 µM
same,TGI,[58],> 47.3 µM
same,GI50,[4],0.218 µM
same,GI50,[5],0.509 µM
same,TGI,[5],> 100 µM
same,GI50,[6],0.504 µM
same,TGI,[6],> 100 µM
same,GI50,[7],0.637 µM
same,TGI,[7],> 100 µM
same,GI50,[8],0.419 µM
same,TGI,[8],> 100 µM
same,GI50,[9],0.825 µM
same,TGI,[9],> 100 µM
same,GI50,[10],0.78 µM
same,TGI,[10],> 100 µM
same,GI50,[11],2.19 µM
same,TGI,[11],> 100 µM
same,GI50,[12],0.367 µM
same,TGI,[12],> 100 µM
same,GI50,[13],0.438 µM
same,TGI,[13],21.4 µM
same,GI50,[14],0.714 µM
same,TGI,[14],2.35 µM
same,GI50,[15],0.987 µM
same,TGI,[15],> 100 µM
same,GI50,[16],1.09 µM
same,TGI,[16],> 100 µM
same,GI50,[17],0.453 µM
same,GI50,[18],1.73 µM
same,TGI,[18],> 100 µM
same,GI50,[19],1.78 µM
same,TGI,[19],> 100 µM
same,GI50,[20],0.391 µM
same,TGI,[20],> 100 µM
same,GI50,[21],0.532 µM
same,TGI,[21],3.82 µM
same,GI50,[22],0.793 µM
same,TGI,[22],> 100 µM
same,GI50,[23],> 74.7 µM
same,TGI,[23],> 100 µM
same,GI50,[24],0.397 µM
same,TGI,[24],> 100 µM
same,GI50,[25],0.492 µM
same,TGI,[25],> 100 µM
same,GI50,[26],0.727 µM
same,TGI,[26],> 100 µM
same,GI50,[27],0.685 µM
same,TGI,[27],8.43 µM
same,GI50,[28],0.651 µM
same,TGI,[28],> 100 µM
same,GI50,[29],0.437 µM
same,TGI,[29],> 100 µM
same,GI50,[30],0.702 µM
same,TGI,[30],> 34.5 µM
same,GI50,[31],1.3 µM
same,TGI,[31],> 28.9 µM
same,GI50,[32],0.296 µM
same,TGI,[32],33.4 µM
same,GI50,[33],0.353 µM
same,TGI,[33],> 100 µM
same,GI50,[34],1.99 µM
same,TGI,[34],> 100 µM
same,GI50,[35],0.326 µM
same,TGI,[35],> 32.3 µM
same,GI50,[36],0.886 µM
same,TGI,[36],> 100 µM
same,GI50,[37],0.918 µM
same,TGI,[37],> 100 µM
same,GI50,[38],0.691 µM
same,TGI,[38],> 100 µM
same,GI50,[39],0.451 µM
same,TGI,[39],> 33.4 µM
same,GI50,[40],0.993 µM
same,TGI,[40],> 100 µM
same,GI50,[41],1.28 µM
same,TGI,[41],> 68.7 µM
same,GI50,[42],0.443 µM
same,TGI,[42],> 100 µM
same,GI50,[43],0.406 µM
same,TGI,[43],> 100 µM
same,GI50,[44],0.29 µM
same,TGI,[44],4.82 µM
same,GI50,[45],0.406 µM
same,TGI,[45],> 36.6 µM
same,GI50,[46],1.26 µM
same,TGI,[46],> 100 µM
same,GI50,[47],0.421 µM
same,TGI,[47],> 100 µM
same,GI50,[48],0.473 µM
same,TGI,[48],> 84.6 µM
same,GI50,[49],0.275 µM
same,TGI,[49],1.97 µM
same,GI50,[50],0.666 µM
same,TGI,[50],12 µM
same,GI50,[51],0.669 µM
same,TGI,[51],> 100 µM
same,GI50,[52],0.592 µM
same,TGI,[52],> 100 µM
same,GI50,[53],0.695 µM
same,TGI,[53],> 100 µM
same,GI50,[54],0.446 µM
same,TGI,[54],> 100 µM
same,GI50,[55],1.08 µM
same,TGI,[55],> 26.7 µM
same,GI50,[56],0.69 µM
same,TGI,[56],> 100 µM
same,GI50,[57],0.544 µM
same,TGI,[57],> 22.8 µM

# Reference: PubChem BioAssay (NCI)
